Legend:
[1] = biological target: Human immunodeficiency virus type 1 reverse transcriptase (Human immunodeficiency virus 1, UniProt Q72547); assay: Inhibitory constant against HIV-1 reverse transcriptase
[2] = Half-life determined in fetal calf serum; type: ADME, Bos taurus; conditions: cattle

| SMILES | Ki [1] | half-life [2] |
| --- | --- | --- |
| Cc1cn([C@H]2C[C@H](F)[C@@H](COP(=O)(O)OP(=O)(O)OP(=O)(O)O)O2)c(=O)[nH]c1=O | 71 nM | – |
| O=c1ccn([C@H]2CC[C@@H](COP(=O)(O)OP(=O)(O)OP(=O)(O)O)O2)c(=O)[nH]1 | 545 nM | 1 h |
| Nc1nc(=O)n([C@H]2CS[C@@H](COP(=O)(O)OP(=O)(O)OP(=O)(O)O)O2)cc1F | 501 nM | – |
| NC1=NCc2c(ncn2[C@H]2CC[C@@H](COP(=O)(O)OP(=O)(O)OP(=O)(O)O)O2)C1=O | 25 nM | – |
| BP(=O)(OC[C@@H]1C=C[C@H](n2cnc3c(O)nc(N)nc32)C1)OP(=O)(O)C(F)(F)P(=O)(O)O (stereo not given in full) | 34 nM | – |
| BP(=O)(OC[C@@H]1CC[C@H](n2ccc(N)nc2=O)O1)OP(=O)(O)C(F)(F)P(=O)(O)O (stereo not given in full) | 23 nM | > 48 h |
| BP(=O)(OC[C@H]1O[C@@H](n2cc(C)c(=O)[nH]c2=O)C[C@@H]1F)OP(=O)(O)C(F)(F)P(=O)(O)O (stereo not given in full) | 46 nM | – |
| BP(=O)(OC[C@@H]1CC[C@H](n2ccc(=O)[nH]c2=O)O1)OP(=O)(O)C(F)(F)P(=O)(O)O (stereo not given in full) | 438 nM | > 48 h |
| BP(=O)(OC[C@@H]1C=C[C@H](n2cc(C)c(=O)[nH]c2=O)O1)OP(=O)(O)C(F)(F)P(=O)(O)O (stereo not given in full) | 45 nM | – |
| BP(=O)(OC[C@@H]1CC[C@H](n2cnc3c(N)ncnc32)O1)OP(=O)(O)C(F)(F)P(=O)(O)O (stereo not given in full) | 47 nM | – |
| BP(=O)(OC[C@H]1O[C@@H](n2cc(C)c(=O)[nH]c2=O)C[C@@H]1N=[N+]=[N-])OP(=O)(O)C(F)(F)P(=O)(O)O (stereo not given in full) | 94 nM | > 48 h |
| BP(=O)(OC[C@H]1O[C@@H](n2cc(F)c(N)nc2=O)CS1)OP(=O)(O)C(F)(F)P(=O)(O)O (stereo not given in full) | 1770 nM | – |
| Nc1nc(O)c2ncn([C@H]3C=CC(COP(=O)(O)OP(=O)(O)OP(=O)(O)O)C3)c2n1 (stereo not given in full) | 37 nM | – |
| BP(=O)(OC[C@H]1O[C@@H](n2ccc(N)nc2=O)CS1)OP(=O)(O)C(F)(F)P(=O)(O)O (mixture of isomers) | 314 nM | > 48 h |
| BP(=O)(OC[C@@H]1CC[C@H](n2cc(C)c(=O)[nH]c2=O)O1)OP(=O)(O)C(F)(F)P(=O)(O)O (mixture of isomers) | 236 nM | – |
| BP(=O)(OC[C@@H]1CC[C@H](n2cnc3c(O)nc(N)cc32)O1)OP(=O)(O)C(F)(F)P(=O)(O)O (single isomer, unassigned; diastereomer I) | 71 nM | – |
| Nc1ncnc2c1ncn2[C@H]1CC[C@@H](COP(=O)(O)OP(=O)(O)OP(=O)(O)O)O1 [DDA-TRIPHOSPHATE] | 20 nM | – |
| Nc1ccn([C@H]2CC[C@@H](COP(=O)(O)OP(=O)(O)OP(=O)(O)O)O2)c(=O)n1 [DDCTP] | – | 0.8 h |
| Cc1cn([C@H]2C[C@H](O)[C@@H](COP(=O)(O)OP(=O)(O)OP(=O)(O)O)O2)c(=O)[nH]c1=O [DEOXYTHYMIDINE_TRIPHOSPHATE] | 61 nM | – |
| Nc1ccn([C@@H]2CS[C@H](COP(=O)(O)OP(=O)(O)OP(=O)(O)O)O2)c(=O)n1 [LAMIVUDINE TRIPHOSPHATE] | 188 nM | 3 h |
| Cc1cn([C@H]2C=C[C@@H](COP(=O)(O)OP(=O)(O)OP(=O)(O)O)O2)c(=O)[nH]c1=O [STAVUDINE TRIPHOSPHATE] | 56 nM | – |
| Nc1ccn([C@H]2CC[C@@H](CO)O2)c(=O)n1 [ZALCITABINE] | 51 nM | – |
| Cc1cn([C@H]2C[C@H](N=[N+]=[N-])[C@@H](CO[P@](=O)(O)O[P@](=O)(O)OP(=O)(O)O)O2)c(=O)[nH]c1=O [ZIDOVUDINE TRIPHOSPHATE] | 91 nM | 2 h |

Source: ChEMBL document CHEMBL1143584, “Synthesis of 2',3'-dideoxynucleoside 5'-alpha-P-borano-beta,gamma-(difluoromethylene)triphosphates and their inhibition of HIV-1 reverse transcriptase” (J Med Chem, 2005)
